Assay [1] addresses T1, récepteur de l'angiotensine II (Rattus norvegicus, UniProt P25095).
T1 construct: une préparation membranaire fraîche obtenue à partir de foie de rat; from tissue; host or cells: rat liver membranes
T1 sequence (P25095 1-359): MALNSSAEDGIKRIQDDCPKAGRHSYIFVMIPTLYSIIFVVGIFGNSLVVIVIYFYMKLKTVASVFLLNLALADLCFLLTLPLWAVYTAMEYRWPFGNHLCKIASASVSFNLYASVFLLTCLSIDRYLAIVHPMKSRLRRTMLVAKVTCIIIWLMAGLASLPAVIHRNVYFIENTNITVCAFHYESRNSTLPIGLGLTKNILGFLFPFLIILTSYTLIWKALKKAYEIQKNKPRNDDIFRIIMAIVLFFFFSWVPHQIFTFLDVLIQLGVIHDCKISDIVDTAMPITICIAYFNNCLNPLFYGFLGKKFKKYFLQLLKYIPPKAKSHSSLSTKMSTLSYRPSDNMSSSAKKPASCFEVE
The assay is described as follows: Angiotensin II receptor binding test (displacement of 125I angiotensin II, rat liver membranes). The settings on record: fresh rat liver membrane preparation, incubation at 25°C for 150 minutes, read-out: CI50 (the source's name). As for the experimental part: On utilise une préparation membranaire fraîche obtenue à partir de foie de rat. Le tissu est broyé au polytron dans un tampon Tris 50 mM pH 7,4 le broyage est suivi de 3 centrifugations à 30 000 g 15' avec reprises intermédiaires des culots dans le tampon Tris pH 7,4.
Les derniers culots sont remis en suspension dans un tampon d'incubation (Tris 20 mM, NaCl 135 mM, KCl 10 mM, glucose 5 mM, MgCl2 10 mM, fluorure de phényl méthyl sulfonyle 0,3 mM, bacitracine 0,1 mM, bis(triméthylsilyl) acétamide 0,2 %).
On répartit des fractions aliquotes de 2 ml dans des tubes à hémolyse et ajoute de la ^125I angiotensine II (25 000 DPM/tube) et le produit à étudier. (Le produit est d'abord testé à 3 x 10^-5M en triple). Lorsque le produit testé déplace de plus de 50 % la radioactivité liée spécifiquement au récepteur, il est testé à nouveau selon une gamme de 7 concentrations afin de déterminer la concentration qui inhibe de 50 % la radioactivité liée spécifiquement au récepteur. On détermine ainsi la concentration inhibitrice 50 %).
La liaison non spécifique est déterminée par addition d'un produit de référence soit le produit de l'exemple 94 du brevet européen 0253310 à 10^-5M (en triple). On incube à 25°C pendant 150 minutes, remet au bain-marie à 0°C, 5 minutes, filtre sous vide, rince au tampon Tris pH 7,4 et compte la radioactivité en présence du scintillant Triton. […]
(In a radioligand displacement assay an active substance lowers the binding of a labelled ligand.)

In assay [2] the test system is angiotensine II sur la veine porte isolée. Briefly: Angiotensin II antagonist activity on the isolated portal vein. Conditions: rat portal vein ring, angiotensin II 3.10^-8M, compound added 15 minutes before stimulation, verapamil 1.10^-6M in the bath; read-out: CI50 (the source's name). Format: cell-based, rats mâles Wistar. As for the experimental part: La veine porte est prélevée, sur des rats mâles Wistar (350 g environ) (IFFA Crédo Franc) après dislocation cervicale, et mise rapidement dans une solution physiologique (voir ci-dessous) à température ambiante. Un anneau de 1 mm environ est monté dans un bain à organe isolé contenant 20 ml de la solution physiologique suivante (composition en mM : NaCl 118,3 - KCl 4,7 - MgSO4 1,2 - KH2PO4 1,2 - NaHCO3 25 - glucose 11,1 - CaCl2 2,5) le milieu est maintenu à 37°C et oxygéné par un mélange O2 95 %, CO2 5 %. La tension initiale imposée est de 1 g, les anneaux sont laissés au repos pendant 60 à 90 minutes. Afin d'éviter les contractions spontanées, du vérapamil est ajouté au bain d'incubation (1.10^-6M).
A la fin de la période de repos l'angiotensine II (hypertensine Ciba) 3.10^-8M est ajoutée dans le bain d'incubation et laissée au contact de la préparation pendant 1 minute. Cette opération est répétée chaque 30 minutes, le tissu étant lavé 3 ou 4 fois entre deux stimulations à l'angiotensine. Le composé à étudier est introduit dans le bain 15 minutes avant une nouvelle stimulation par l'angiotensine. Des concentrations croissantes de la molécule étant appliquées, une CI50 (concentration qui produit une inhibition de 50 % de la réponse à l'angiotensine) peut être calculée, celle-ci est exprimée en nanomoles.

We go through one molecule from EP0461039B1, “Benzimidazole derivatives, process and intermediates for their preparation, their use as medicaments and pharmaceutical compositions containing them” (HOECHST MARION ROUSSEL, priority 1990, dated 1991).

Molecules are shown by their SMILES.

As for `CCCCc1nc2cccc(C(=O)O)c2n1Cc1ccc(-c2ccccc2C(=O)O)cc1` [Exemple 2, Acide 2-butyl 1-[(2'-carboxybiphényl-4-yl)méthyl] 1H-benzimidazole-7-carboxylique], the IC50 worked out at 0.052 µM in assay [1] and 0.0095 µM in assay [2].
